Results on six molecules are retold here after ChEMBL document CHEMBL1201862, “PubChem BioAssay data set” (2004).

For one experiment, the target named is Tumor necrosis factor (Homo sapiens, UniProt P01375). Put plainly: TNFa-triggered NF-kB activation inhibitors, SAR follow-up, cell-based, revised (AID 2337). It is filed as functional.
Experiment [1] concerns the target T1, Nucleotide-binding oligomerization domain-containing protein 1 (Homo sapiens, UniProt Q9Y239).
T1 sequence (Q9Y239 whole entry): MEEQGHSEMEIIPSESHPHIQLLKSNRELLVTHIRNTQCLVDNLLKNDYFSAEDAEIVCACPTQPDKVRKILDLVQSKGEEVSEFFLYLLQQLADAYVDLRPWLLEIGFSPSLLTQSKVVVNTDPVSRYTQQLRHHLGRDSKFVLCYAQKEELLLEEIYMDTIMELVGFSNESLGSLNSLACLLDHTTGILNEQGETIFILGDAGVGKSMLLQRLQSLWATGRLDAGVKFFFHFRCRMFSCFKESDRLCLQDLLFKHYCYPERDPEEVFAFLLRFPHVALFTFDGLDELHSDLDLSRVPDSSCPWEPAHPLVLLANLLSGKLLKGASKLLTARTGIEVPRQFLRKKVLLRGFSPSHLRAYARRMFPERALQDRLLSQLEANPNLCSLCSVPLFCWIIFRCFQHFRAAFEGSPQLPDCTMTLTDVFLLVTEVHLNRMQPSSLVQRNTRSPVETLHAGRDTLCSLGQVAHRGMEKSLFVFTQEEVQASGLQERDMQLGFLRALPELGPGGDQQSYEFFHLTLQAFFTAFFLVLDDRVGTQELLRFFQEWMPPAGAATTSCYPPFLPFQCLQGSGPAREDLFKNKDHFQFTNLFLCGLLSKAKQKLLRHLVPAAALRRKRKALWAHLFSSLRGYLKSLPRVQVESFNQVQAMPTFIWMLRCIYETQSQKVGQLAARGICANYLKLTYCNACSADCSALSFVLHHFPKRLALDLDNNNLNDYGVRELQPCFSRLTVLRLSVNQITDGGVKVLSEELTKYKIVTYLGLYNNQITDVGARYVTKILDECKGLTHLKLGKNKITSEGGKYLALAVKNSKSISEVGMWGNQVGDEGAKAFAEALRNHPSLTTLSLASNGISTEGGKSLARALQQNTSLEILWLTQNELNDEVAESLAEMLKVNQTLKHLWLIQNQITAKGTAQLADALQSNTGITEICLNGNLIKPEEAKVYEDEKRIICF
Description: NOD1 signaling inhibitors, SAR follow-up, revised (AID 2333). It is filed as functional.

Experiment [2] addresses Luciferin 4-monooxygenase (Photinus pyralis, UniProt P08659). Description: firefly luciferase enzyme inhibitors, dose response, biochemical, dry powder samples, plate reader (AID 588451).
Experiment [3] has as its system H4. Description: inhibitors of control reporter signal in H4 cells – cell-based, plate reader, dry powder samples, counter-screen for prion reporter project, dose response (AID 540255). It is filed as functional. To be noted: Homo sapiens. In general terms: The purpose of a counterscreen is to sort out artefacts and off-target activity.
Experiment [4] relates to H4. Description: Amyloid Precursor 5' UTR neuroblastoma cell reporter line Measured in Cell-Based System Using Plate Reader - 2078-04_Inhibitor_Dose_DryPowder_Activity. [Related pubchem assays (depositor defined):AID488894]. As to conditions: Homo sapiens. In kind it is functional.
Experiment [5] relates to H4. Put plainly: Inhibitors of Prion Protein 5' UTR mRNA Measured in Cell-Based System Using Plate Reader - 2078-01_Inhibitor_Dose_DryPowder_Activity. [Related pubchem assays (depositor defined):AID488894]. It is filed as functional. To be noted: Homo sapiens.
The subject of another experiment is HEK293. Put plainly: cells. To be noted: Homo sapiens.
The target of experiment [6] is DNA dC->dU-editing enzyme APOBEC-3G (Homo sapiens, UniProt Q9HC16). Description: APOBEC3G deaminase inhibitors, SAR follow-up, biochemical, fluorescence, single-stranded DNA substrate (AID 602136). It is filed as functional. As to conditions: read-out: IC50_Mean.
Chain of DNA dC->dU-editing enzyme APOBEC-3G (Q9HC16 whole entry): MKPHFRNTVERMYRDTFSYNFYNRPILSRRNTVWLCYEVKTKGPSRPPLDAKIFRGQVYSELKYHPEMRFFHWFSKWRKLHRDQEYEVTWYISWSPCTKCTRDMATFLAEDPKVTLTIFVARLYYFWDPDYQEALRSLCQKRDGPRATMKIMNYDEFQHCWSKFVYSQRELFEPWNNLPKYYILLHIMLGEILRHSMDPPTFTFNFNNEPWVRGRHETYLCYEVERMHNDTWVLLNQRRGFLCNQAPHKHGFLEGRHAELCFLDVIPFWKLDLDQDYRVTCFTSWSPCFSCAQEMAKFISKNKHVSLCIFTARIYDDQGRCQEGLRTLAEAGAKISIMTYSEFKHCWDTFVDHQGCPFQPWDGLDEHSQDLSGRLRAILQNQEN
The target of experiment [7] is DNA dC->dU-editing enzyme APOBEC-3A (Homo sapiens, UniProt P31941). Put plainly: SAR analysis of small molecule inhibitors of APOBEC3A DNA Deaminase via a fluorescence-based single-stranded DNA deaminase assay. In kind it is functional. As to conditions: read-out: IC50_Mean.
Chain of DNA dC->dU-editing enzyme APOBEC-3A (P31941 whole entry): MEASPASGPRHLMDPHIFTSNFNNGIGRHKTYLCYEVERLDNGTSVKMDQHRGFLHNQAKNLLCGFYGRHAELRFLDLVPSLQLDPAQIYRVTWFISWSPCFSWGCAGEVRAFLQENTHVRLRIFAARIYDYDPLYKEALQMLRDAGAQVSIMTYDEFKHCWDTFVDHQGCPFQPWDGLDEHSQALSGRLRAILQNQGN
Experiment [8] is described as follows: SAR analysis of small molecule activators of Apaf-1 using a LZ-Caspase-9/Caspase-3 Fluorescent Selectivity assay - Set 2. In kind it is functional. To be noted: read-out: EC50_Mean.
The target in experiment [9] is T2, Apoptotic protease-activating factor 1 (Homo sapiens, UniProt O14727).
T2 sequence (O14727 whole entry): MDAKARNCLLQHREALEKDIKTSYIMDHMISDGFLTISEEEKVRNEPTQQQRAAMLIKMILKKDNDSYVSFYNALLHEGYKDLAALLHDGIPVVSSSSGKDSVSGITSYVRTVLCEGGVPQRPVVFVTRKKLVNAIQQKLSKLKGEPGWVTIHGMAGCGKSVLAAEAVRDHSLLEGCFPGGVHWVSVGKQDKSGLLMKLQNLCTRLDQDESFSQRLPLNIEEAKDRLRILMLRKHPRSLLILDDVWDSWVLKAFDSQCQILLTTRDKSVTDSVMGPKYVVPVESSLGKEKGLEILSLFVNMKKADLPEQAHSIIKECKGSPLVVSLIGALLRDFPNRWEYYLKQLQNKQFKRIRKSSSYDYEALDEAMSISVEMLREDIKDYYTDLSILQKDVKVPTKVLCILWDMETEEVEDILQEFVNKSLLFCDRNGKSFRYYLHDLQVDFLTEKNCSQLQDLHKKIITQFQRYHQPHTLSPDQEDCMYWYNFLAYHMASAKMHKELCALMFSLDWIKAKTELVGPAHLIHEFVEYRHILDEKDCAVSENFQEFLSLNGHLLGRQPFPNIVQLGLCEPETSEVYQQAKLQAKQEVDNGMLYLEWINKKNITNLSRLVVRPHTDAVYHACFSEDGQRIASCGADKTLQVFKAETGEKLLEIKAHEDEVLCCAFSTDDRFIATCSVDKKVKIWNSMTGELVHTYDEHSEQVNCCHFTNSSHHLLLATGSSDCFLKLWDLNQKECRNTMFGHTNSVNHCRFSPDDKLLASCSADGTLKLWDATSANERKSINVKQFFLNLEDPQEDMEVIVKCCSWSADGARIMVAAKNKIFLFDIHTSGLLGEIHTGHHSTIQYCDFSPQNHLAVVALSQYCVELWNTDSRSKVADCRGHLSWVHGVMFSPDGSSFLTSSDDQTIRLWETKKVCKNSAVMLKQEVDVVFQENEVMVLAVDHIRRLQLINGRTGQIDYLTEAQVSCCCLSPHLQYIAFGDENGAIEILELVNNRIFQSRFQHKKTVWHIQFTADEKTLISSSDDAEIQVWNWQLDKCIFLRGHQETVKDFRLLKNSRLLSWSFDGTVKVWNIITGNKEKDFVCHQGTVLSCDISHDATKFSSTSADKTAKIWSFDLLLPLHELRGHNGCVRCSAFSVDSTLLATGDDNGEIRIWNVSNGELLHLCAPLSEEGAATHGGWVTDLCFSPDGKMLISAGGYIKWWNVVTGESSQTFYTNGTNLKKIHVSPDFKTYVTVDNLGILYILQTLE
Put plainly: SAR analysis of small molecule Activators of Apaf-1 in a Fluorescent assay. To be noted: read-out: EC50_Mean. In kind it is functional.

The target in experiment [10] is T2, Apoptotic protease-activating factor 1. Description: SAR analysis of small molecule Activators of Apaf-1 in a Fluorescent assay - set 2. It is filed as functional. To be noted: read-out: EC50_Mean.
The target of experiment [11] is Casein kinase I isoform alpha (Homo sapiens, UniProt P48729). In kind it is functional.
The target in experiment [12] is G protein-coupled receptor kinase 5 (Homo sapiens, UniProt P34947). Put plainly: Navigating the Kinome. Panel member name: GPRK5. In kind it is functional.
Experiment [13] deals with Cell division cycle 7-related protein kinase (Homo sapiens, UniProt O00311). In kind it is functional.
Chain of Cell division cycle 7-related protein kinase (O00311 whole entry): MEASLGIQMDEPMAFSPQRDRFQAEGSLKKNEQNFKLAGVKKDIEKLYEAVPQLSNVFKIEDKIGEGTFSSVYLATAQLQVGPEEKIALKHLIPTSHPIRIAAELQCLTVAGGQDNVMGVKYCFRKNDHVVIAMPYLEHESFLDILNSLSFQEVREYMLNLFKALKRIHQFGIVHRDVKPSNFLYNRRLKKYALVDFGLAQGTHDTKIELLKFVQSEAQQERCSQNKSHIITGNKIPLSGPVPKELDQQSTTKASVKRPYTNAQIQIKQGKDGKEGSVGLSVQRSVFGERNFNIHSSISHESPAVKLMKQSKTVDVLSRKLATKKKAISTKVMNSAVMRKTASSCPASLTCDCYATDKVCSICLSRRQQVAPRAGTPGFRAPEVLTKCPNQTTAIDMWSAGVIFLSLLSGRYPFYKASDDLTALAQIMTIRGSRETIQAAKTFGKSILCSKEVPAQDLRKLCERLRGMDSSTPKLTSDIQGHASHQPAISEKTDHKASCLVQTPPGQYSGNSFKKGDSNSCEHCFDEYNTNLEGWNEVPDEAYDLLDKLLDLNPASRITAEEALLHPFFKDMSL
In experiment [14] the target is Mast/stem cell growth factor receptor Kit (Homo sapiens, UniProt P10721). It is filed as functional.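 Also: KIT entry within a kinase panel assay.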
Experiment [15] concerns the target Tyrosine-protein kinase Blk (Homo sapiens, UniProt P51451). In kind it is functional.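 Also: obtained as one member of a kinome-wide kinase assay panel.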
The target in experiment [16] is Mitogen-activated protein kinase 13 (Homo sapiens, UniProt O15264). It is filed as functional.
Experiment [17] addresses Mitogen-activated protein kinase kinase kinase kinase 2 (Homo sapiens, UniProt Q12851). In kind it is functional.
Experiment [18] concerns the target Mitogen-activated protein kinase kinase kinase kinase 5 (Homo sapiens, UniProt Q9Y4K4). In kind it is functional.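 Also: measured as one member of a kinome-spanning kinase panel.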
For experiment [19], the target named is Serine/threonine-protein kinase pim-1 (Homo sapiens, UniProt P11309). In kind it is functional.
Experiment [20] concerns the target Homeodomain-interacting protein kinase 2 (Homo sapiens, UniProt Q9H2X6). It is filed as functional.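 Also: measured within a kinome-wide kinase profiling panel, HIPK2 being one panel member.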
The target of experiment [21] is MAP kinase-interacting serine/threonine-protein kinase 2 (Homo sapiens, UniProt Q9HBH9). In kind it is functional.
Experiment [22] concerns the target Interleukin-1 receptor-associated kinase 4 (Homo sapiens, UniProt Q9NWZ3). In kind it is functional.
In experiment [23] the target is Cyclin-dependent kinase 7 (Homo sapiens, UniProt P50613). It is filed as functional.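 Also: value comes from a kinome-wide kinase profiling panel in which CDK7 is one member.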
Experiment [24] has as its target Glycogen synthase kinase-3 beta (Homo sapiens, UniProt P49841). In kind it is functional.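 Also: value comes from a broad kinome profiling panel, with GSK3B as the panel member.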
Experiment [25] concerns the target Cyclin-dependent kinase 9 (Homo sapiens, UniProt P50750). In kind it is functional.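 Also: value from the CDK9 entry of a kinome-spanning kinase panel.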
For experiment [26], the target named is cAMP-dependent protein kinase catalytic subunit alpha (Homo sapiens, UniProt P17612). In kind it is functional.
Experiment [27] has as its target Dual specificity protein kinase CLK4 (Homo sapiens, UniProt Q9HAZ1). In kind it is functional.
Experiment [28] addresses Mitogen-activated protein kinase kinase kinase kinase 4 (Homo sapiens, UniProt O95819). It is filed as functional.

Values joined by “and” are separate entries in the source; they are usually repeats but may differ in a detail not shown here. Equal entries are not always repeated. Active and inactive are the calls of the source.

Chain of Homeodomain-interacting protein kinase 2 (Q9H2X6 whole entry): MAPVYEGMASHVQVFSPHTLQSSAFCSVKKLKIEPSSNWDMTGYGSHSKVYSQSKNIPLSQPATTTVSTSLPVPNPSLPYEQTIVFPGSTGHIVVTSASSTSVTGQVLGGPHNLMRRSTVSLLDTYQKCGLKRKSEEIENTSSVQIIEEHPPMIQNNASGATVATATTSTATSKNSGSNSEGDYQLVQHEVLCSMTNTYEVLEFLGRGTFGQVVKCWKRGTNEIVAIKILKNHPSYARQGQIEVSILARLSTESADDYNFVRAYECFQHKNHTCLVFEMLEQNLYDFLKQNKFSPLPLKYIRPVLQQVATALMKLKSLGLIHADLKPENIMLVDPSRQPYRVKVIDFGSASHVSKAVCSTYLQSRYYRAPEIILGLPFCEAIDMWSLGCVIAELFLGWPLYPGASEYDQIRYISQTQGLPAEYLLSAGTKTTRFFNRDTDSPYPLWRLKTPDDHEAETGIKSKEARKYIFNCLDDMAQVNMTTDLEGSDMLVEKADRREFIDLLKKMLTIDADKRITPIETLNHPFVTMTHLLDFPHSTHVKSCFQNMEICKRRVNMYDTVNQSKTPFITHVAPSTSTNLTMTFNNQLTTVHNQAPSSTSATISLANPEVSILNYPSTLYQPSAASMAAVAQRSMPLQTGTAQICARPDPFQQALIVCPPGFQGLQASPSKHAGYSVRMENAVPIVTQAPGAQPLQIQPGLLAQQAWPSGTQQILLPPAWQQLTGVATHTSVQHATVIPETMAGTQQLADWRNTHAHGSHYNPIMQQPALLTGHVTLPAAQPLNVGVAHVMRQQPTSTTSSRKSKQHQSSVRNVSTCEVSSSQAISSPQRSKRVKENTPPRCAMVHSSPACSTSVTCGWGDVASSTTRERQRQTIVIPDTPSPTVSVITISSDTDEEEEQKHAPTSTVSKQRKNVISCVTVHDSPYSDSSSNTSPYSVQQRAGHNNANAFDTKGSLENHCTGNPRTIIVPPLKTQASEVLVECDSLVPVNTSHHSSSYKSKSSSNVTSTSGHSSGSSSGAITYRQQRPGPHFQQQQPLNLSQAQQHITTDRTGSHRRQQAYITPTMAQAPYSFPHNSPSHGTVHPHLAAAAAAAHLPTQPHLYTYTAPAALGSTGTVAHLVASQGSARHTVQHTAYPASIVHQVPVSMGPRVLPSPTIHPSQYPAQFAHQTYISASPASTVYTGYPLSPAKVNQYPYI
Chain of Cyclin-dependent kinase 9 (P50750 whole entry): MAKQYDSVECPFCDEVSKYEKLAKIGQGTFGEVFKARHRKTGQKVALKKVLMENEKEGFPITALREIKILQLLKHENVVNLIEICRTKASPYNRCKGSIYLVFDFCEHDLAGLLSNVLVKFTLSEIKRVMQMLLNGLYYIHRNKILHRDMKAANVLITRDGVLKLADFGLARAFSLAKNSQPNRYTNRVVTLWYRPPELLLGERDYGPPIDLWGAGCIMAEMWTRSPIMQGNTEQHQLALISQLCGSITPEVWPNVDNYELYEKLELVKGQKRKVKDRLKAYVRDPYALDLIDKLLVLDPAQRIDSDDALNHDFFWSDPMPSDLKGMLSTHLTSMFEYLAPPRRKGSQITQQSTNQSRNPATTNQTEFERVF
Chain of Glycogen synthase kinase-3 beta (P49841 whole entry): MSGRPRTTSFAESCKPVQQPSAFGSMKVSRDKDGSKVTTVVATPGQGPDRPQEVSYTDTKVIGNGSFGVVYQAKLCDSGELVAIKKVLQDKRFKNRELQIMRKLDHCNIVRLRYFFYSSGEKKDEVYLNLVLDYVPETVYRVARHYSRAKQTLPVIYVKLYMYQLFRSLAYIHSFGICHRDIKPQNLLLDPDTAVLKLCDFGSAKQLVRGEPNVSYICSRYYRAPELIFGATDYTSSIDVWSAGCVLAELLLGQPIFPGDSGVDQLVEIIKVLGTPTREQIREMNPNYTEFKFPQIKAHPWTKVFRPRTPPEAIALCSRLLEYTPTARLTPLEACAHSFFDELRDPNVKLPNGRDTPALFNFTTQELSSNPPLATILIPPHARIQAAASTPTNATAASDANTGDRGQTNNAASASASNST
Chain of Mitogen-activated protein kinase kinase kinase kinase 5 (Q9Y4K4 whole entry): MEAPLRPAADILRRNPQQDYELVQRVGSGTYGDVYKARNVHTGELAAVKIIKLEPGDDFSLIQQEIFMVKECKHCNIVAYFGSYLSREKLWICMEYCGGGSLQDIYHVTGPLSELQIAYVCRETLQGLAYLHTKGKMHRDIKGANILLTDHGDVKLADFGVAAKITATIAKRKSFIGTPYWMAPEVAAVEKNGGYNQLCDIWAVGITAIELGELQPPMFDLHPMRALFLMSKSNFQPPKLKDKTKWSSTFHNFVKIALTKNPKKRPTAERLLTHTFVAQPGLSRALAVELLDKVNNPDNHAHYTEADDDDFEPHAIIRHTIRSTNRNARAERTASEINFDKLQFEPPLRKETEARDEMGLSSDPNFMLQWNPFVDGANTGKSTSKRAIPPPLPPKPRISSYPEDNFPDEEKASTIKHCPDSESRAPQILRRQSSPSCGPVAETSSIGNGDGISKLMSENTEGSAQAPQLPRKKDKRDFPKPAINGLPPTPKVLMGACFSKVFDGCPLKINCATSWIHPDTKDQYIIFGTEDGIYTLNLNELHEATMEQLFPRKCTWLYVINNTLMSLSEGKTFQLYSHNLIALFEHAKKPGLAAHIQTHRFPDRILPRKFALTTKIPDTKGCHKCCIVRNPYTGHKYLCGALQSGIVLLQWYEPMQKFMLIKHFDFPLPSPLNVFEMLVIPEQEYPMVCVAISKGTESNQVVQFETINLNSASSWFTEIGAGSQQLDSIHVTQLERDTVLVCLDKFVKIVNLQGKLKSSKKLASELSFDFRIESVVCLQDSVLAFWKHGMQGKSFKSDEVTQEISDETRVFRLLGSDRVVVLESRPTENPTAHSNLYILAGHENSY
Chain of Luciferin 4-monooxygenase (P08659 whole entry): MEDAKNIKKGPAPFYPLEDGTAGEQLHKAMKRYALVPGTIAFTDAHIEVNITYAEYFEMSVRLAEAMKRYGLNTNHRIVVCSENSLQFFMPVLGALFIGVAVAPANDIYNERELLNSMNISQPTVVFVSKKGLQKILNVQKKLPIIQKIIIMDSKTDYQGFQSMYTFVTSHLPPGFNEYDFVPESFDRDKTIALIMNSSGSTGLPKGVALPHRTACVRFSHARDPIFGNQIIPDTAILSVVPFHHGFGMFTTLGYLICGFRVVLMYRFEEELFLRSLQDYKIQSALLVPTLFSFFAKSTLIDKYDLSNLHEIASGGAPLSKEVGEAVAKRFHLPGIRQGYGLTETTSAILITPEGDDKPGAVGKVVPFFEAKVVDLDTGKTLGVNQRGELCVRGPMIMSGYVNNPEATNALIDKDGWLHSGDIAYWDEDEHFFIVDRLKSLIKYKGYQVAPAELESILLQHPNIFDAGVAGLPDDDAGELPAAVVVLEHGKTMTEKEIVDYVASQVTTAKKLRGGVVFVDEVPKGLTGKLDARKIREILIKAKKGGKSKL
Chain of Interleukin-1 receptor-associated kinase 4 (Q9NWZ3 whole entry): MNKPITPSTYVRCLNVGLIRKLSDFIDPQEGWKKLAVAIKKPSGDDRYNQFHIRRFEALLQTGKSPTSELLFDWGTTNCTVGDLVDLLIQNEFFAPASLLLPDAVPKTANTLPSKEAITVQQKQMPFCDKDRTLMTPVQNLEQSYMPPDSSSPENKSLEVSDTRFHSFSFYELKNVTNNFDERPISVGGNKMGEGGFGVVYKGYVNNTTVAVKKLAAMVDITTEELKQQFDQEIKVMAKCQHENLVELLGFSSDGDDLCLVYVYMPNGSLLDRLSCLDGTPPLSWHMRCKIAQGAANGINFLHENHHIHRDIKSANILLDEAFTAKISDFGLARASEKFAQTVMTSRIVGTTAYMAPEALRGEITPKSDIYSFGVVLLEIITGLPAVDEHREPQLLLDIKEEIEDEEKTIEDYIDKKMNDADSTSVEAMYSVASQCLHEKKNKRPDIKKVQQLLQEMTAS

`CC(C)(C)c1ccc(-c2nc3ccccc3s2)cc1`: the results for the IC50 (at Tumor necrosis factor; in experiment [1]; in the experiment with HEK293) were 246 nM (active), 31.8 nM (active) and > 20000 nM (inactive), respectively. Besides, the AC50 – broadly, the concentration giving half of the maximal activity seen – in experiment [2] was 25800 nM (active); in the experiment with H4 [3] it was 205 nM (active); in the experiment on H4 [4], 2.26 nM (active); in the experiment with H4 [5] it was 11 nM (active).
`CCCn1c(=O)c2ccc(C(=O)NC(C)C)cc2n2c(=O)n(Cc3c(F)cccc3Cl)nc12`: the IC50 in [6] and in experiment [7] was > 99000 nM (inactive) in each case.
`Cc1nn(CC(C)C(=O)O)c(C)c1Br` (stereo unspecified): the EC50 is > 100 µM (inactive) and > 99 µM (inactive) in [8]; 5130 nM (active) in experiment [9]; 4.75 µM (active) and 3.41 µM (active) and 12.7 µM (active) in experiment [10].
For the molecule `NS(=O)(=O)OCC1CC(n2ccc3c(NC4CCc5ccccc54)ncnc32)CC1O` (stereo unspecified), the Ki – broadly, a measure of affinity in units of concentration, obtained from inhibition or displacement – is 3160 nM (active) in experiment [11] and 2510 nM (active) in [12].
`CC1(O)CC(c2nc(-c3ccc4ccc(-c5ccccc5)nc4c3)c3c(N)nccn23)C1` (stereo unspecified): the Ki in experiment [13] is > 1260 nM (inactive); in [14], > 1260 nM (inactive); in [15], 316 nM (active); in experiment [16], > 7940 nM (inactive); in experiment [17], 794 nM (active); in experiment [18], 316 nM (active).
Consider `CN(C)c1cc(-c2ccncc2)cc2[nH]nc(N)c12`, for which the Ki in experiment [19] was 5010 nM (active); in experiment [13], 12.6 nM (active); in experiment [20], 2000 nM (active); in experiment [21] it was 126 nM (active); in [22], 398 nM (active); in experiment [23] it was 200 nM (active). Moreover, the Ki was 1260 nM (active) in experiment [24]; 100 nM (active) in [25]; 501 nM (active) in experiment [26]; 12.6 nM (active) in experiment [27]; 100 nM (active) in experiment [28].
